What was measured:
TMEM16A = target: T1, TMEM16A (Homo sapiens, UniProt Q5XXA6, DEL476-501); experiment: Fluorescence plate reader assay of TMEM16A-mediated I^− influx (YFP halide sensor); type: cell-based
T1 construct: expressed in transfected cells
T1 sequence (Q5XXA6 with tags, fused parts or gaps isoform Q5XXA6-5 DEL539-564): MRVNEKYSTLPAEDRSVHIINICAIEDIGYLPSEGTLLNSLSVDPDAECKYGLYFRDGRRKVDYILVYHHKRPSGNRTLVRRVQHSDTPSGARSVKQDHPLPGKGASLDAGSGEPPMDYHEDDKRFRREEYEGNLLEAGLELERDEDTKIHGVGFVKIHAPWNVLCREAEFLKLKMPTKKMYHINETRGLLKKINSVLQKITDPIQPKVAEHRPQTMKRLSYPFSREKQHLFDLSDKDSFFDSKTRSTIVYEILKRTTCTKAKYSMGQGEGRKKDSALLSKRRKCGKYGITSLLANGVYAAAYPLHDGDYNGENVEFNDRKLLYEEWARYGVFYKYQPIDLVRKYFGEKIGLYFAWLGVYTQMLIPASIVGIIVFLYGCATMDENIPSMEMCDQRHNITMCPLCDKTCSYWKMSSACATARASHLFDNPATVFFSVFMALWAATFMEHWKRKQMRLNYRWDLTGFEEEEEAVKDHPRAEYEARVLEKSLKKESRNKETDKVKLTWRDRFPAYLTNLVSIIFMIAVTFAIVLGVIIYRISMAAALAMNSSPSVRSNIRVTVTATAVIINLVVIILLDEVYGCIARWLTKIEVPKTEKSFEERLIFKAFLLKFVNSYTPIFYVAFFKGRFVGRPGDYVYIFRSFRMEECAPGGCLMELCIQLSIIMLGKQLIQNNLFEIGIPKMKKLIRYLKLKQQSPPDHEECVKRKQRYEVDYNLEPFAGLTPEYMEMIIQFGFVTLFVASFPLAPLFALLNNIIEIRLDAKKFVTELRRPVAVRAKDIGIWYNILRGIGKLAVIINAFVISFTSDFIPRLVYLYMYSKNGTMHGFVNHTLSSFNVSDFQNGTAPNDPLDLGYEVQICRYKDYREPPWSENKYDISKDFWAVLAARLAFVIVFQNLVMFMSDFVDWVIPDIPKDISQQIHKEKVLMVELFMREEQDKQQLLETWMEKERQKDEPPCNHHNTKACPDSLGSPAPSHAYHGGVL
Procedure: FRT cells were stably transfected with human TMEM16A (TMEM16A(abc), cDNA provided by Dr. Luis Galietta, Gaslini Institute, Genoa, Italy) and the halide sensor YFP-H148Q/1152L/F46L. Cells were plated in 96-well black-walled microplates (Corning Inc., Corning, N.Y.) at a density of 20,000 cells per well in Coon's modified F12 medium supplemented with 5% fetal calf serum, 2 mM L-glutamine, 100 U/mL penicillin and 100 μg/mL streptomycin. The human submandibular cell line A253 (ATCC HTB 41) was cultured in complete McCoy's 5A medium supplemented with 10% fetal bovine serum, 100 U/mL penicillin and 100 μg/mL streptomycin.
TMEM16A activators were identified from screening of ˜110,000 synthetic drug-like compounds, purified natural products and approved/investigational drugs. The cell-based screen employs FRT cells coexpressing human TMEM16A and the I^−-sensing yellow fluorescent protein YFP-H148Q/1152L/F46L. FRT cells were chosen because of their low basal I^− and Cl^− transport, rapid growth on uncoated plastic, strong stable expression of transfected proteins, and formation of tight junctions for measurements of transepithelial short-circuit current (Ma et al., supra).
High-throughput screening was done using an automated screening platform (Beckman) equipped with FluoStar fluorescence plate readers (BMG Lab Technologies, Durham, N.C.) as described (Ma et al., supra). Each well of a 96-well plate was washed 3 times with PBS (200 μL/wash), leaving 50 μL PBS. Test compounds (0.5 μL) were added to each well at […]. After 10 min, 96-well plates were transferred to a plate reader for fluorescence assay. Each well was assayed individually for TMEM16A-mediated I^− influx by recording fluorescence continuously (400 ms per point) for 2 s (baseline), then 50 μL of a 140 mM I^− solution was added. The initial rate of I^− influx was computed from fluorescence data by non-linear regression.
As diagrammed in FIG. 1A, test compounds at 25 μM final concentration were added 10 min prior to I^− addition. The 10 min incubation was chosen to allow for compound transport into cytoplasm and to minimize false positives from compounds that elevate cytoplasmic Ca^2+ transiently. Fluorescence from individual wells of 96-well plates was measured just prior to and for 6 s after I^− addition for computation of initial I^− influx rate.

[1] = system: mouse ileal smooth muscle; experiment: Intestinal smooth muscle contraction, ex vivo mouse ileal segments; conditions: T16Ainh-A01 10 μM
Procedure: FIG. 8A-C. Intestinal smooth muscle contraction. FIG. 8A. Representative traces from mouse ileal segments showing effects of T16Ainh-A01 (10 μM), carbachol (CCh, 1 μM) and Eact (10 μM). FIG. 8B. Effect of CCh (1 μM) and Eact (10 μM) following atropine (1 μM). FIG. 8C. Summary of contraction frequency (left), and resting and maximum tone (right) (mean±S.E., n=4-7, * P<0.05).
Wild type CD1 mice (age 8-10 weeks) were killed by avertin overdose (200 mg/kg). The ileum removed and washed with ice-cold HCO3^−-buffered solution. The ends of the ileal segments were tied with silk thread and connected to a force transducer. Beal segments were equilibrated for 60 min with a resting force of ˜1 mN, with changes of the bathing solution every 15 min. Tension was monitored continuously with a fixed-range precision force transducer (TSD, 125 C; Biopac, Goleta, Calif.) connected to a differential amplifier (DA 100B; Biopac). Data were recorded using MP100, Biopac digital acquisition system and analyzed using Acknowledge 3.5.7 software.
TMEM16A in expressed in the interstitial cells of Cajal, the pacemaker cells that control smooth muscle contraction dynamics in stomach and intestine (Huang et al., supra; Gomez-Pinilla et al. (2009) Am. J. Physiol. Gastrointest. Liver Physiol. 296, G1370-1381). The effect of Eact on mouse ileal smooth muscle contraction was investigated using an ex vivo intestinal preparation. […] Without wishing to be bound by theory, the constitutive TMEM16A activity in this ex vivo preparation could obscure Eact activity. To reveal Eact effects, atropine was first added to inhibit basal contractions. […] FIG. 8C summarizes data on contraction frequency, resting tone and maximal tone.

Structure (SMILES) | EC50 (TMEM16A) [µM] | TMEM16A conductance, F class SAR (TMEM16A; synthesized F class analogs) | spontaneous intestinal contractions at baseline [1]
O=C(Nc1ccc(Br)cc1)c1cccc(-n2cnnn2)c1 [Fact, N-(4-bromophenyl)-3-(1H-tetrazol-1-yl)benzamide] | 37 | increased TMEM16A conductance | 
CCc1c(C)nc(SCC(=O)Nc2nc(-c3ccc(OC)cc3)cs2)[nH]c1=O [T16Ainh-A01, reference compound] |  |  | inhibited
